Results published in PubChem BioAssay AID248 (DTP/NCI, 2004).
“And” between values parts separate entries of the source, which are not always exact repeats. Equal values may be shown once. Toxic doses and inconclusive results are not listed. Cut-off read from the data, not from the text of the source: active = T/C of 150% or more; inactive = T/C below 125%.

Tested on: L1210 leukemia ip in BDF1 mice, survival T/C
Experiment: NCI In Vivo Anticancer Drug Screen. Data for tumor model L1210 Leukemia (intraperitoneal) in B6D2F1 (BDF1) mice
Conditions: endpoint: mean survival time, higher = longer survival
Procedure, shortened: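 Tumor was transplanted into mice, which were then dosed with test compound or vehicle alone. Survival was recorded for each group, and the treated figure was expressed relative to the control figure.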

[1] = dose: 100.0 mg/kg/injection, schedule: Q01DX001 (ip), vehicle: saline
[2] = dose: 200.0 mg/kg/injection, schedule: Q01DX001 (ip), vehicle: saline
[3] = dose: 400.0 mg/kg/injection, schedule: Q01DX001 (ip), vehicle: saline
[4] = dose: 50.0 mg/kg/injection, schedule: Q01DX001 (ip), vehicle: carboxymethylcellulose (CMC)
[5] = dose: 100.0 mg/kg/injection, schedule: Q01DX001 (ip), vehicle: carboxymethylcellulose (CMC)
[6] = dose: 200.0 mg/kg/injection, schedule: Q01DX001 (ip), vehicle: carboxymethylcellulose (CMC)
[7] = dose: 400.0 mg/kg/injection, schedule: Q01DX001 (ip), vehicle: carboxymethylcellulose (CMC)
[8] = dose: 100.0 mg/kg/injection, schedule: Q04DX003 (ip), vehicle: Klucel (hydroxypropylcellulose) (HPC)
[9] = dose: 200.0 mg/kg/injection, schedule: Q04DX003 (ip), vehicle: Klucel (hydroxypropylcellulose) (HPC)
[10] = dose: 400.0 mg/kg/injection, schedule: Q04DX003 (ip), vehicle: Klucel (hydroxypropylcellulose) (HPC)
[11] = dose: 100.0 mg/kg/injection, schedule: Q04DX002 (ip), vehicle: saline
[12] = dose: 100.0 mg/kg/injection, schedule: Q04DX003 (ip), vehicle: saline
[13] = dose: 200.0 mg/kg/injection, schedule: Q04DX003 (ip), vehicle: saline
[14] = dose: 400.0 mg/kg/injection, schedule: Q04DX003 (ip), vehicle: saline
[15] = dose: 100.0 mg/kg/injection, schedule: Q01DX009 (ip), vehicle: saline with Tween-80
[16] = dose: 200.0 mg/kg/injection, schedule: Q01DX009 (ip), vehicle: saline with Tween-80
[17] = dose: 400.0 mg/kg/injection, schedule: Q01DX009 (ip), vehicle: saline with Tween-80
[18] = dose: 100.0 mg/kg/injection, schedule: Q01DX009 (ip), vehicle: Klucel (hydroxypropylcellulose) (HPC)

Measured: T/C

C/C=C1\CN(C(=O)C(NC(=O)C(N)C(O)C(O)COC(N)=O)C2OC(n3cc(C(=O)O)c(=O)[nH]c3=O)C(O)C2O)C1C(=O)O (stereo unspecified) (tested in a mixture with another compound)
inactive: [1] 109 % of control | [2] 103 % of control | [3] 97 % of control

NC(=O)C1(Nc2ccc(-c3ccccc3)cc2)CCCC1
inactive: [4] 96 % of control | [5] 96 % of control | [6] 88 % of control | [7] 90 % of control

C[N+]1(C2CCC3CCC2C3=O)CCCC1 (stereo unspecified)
inactive: dose: 75.0 mg/kg/injection, schedule: Q01DX001 (ip), vehicle: saline 97 % of control | dose: 150.0 mg/kg/injection, schedule: Q01DX001 (ip), vehicle: saline 97 % of control

Cc1[nH]c(=O)[nH]c(=O)c1N=Nc1ccccc1
inactive: dose: 25.0 mg/kg/injection, schedule: Q01DX001 (ip), vehicle: saline with Tween-80 95 % of control | dose: 50.0 mg/kg/injection, schedule: Q01DX001 (ip), vehicle: saline with Tween-80 98 % of control | dose: 100.0 mg/kg/injection, schedule: Q01DX001 (ip), vehicle: saline with Tween-80 95 % of control

CCCCNc1c(NCCCC)c(=O)c1=O
inactive: [8] 90 % of control | [9] 90 % of control | [10] 91 % of control

CCOC(=O)/C(C#N)=C\c1cc(O)c(O)c(OC)c1
inactive: [4] 100 % of control | [5] 92 % of control | [6] 97 % of control | [7] 103 % of control

CCCCCNCCC[P+](c1ccccc1)(c1ccccc1)c1ccccc1
inactive: dose: 25.0 mg/kg/injection, schedule: Q04DX002 (ip), vehicle: saline 98 % of control | dose: 50.0 mg/kg/injection, schedule: Q04DX002 (ip), vehicle: saline 105 % of control | [11] 119 % of control

COC(=O)c1cc(-c2ccc(Cl)cc2)nc2c(C)cc(C)cc12
inactive: [5] 92 % of control | [6] 101 % of control | [7] 89 % of control

COC(=O)C1C(C(=O)OC)C2C3OC(=O)C(C2C(=O)OC)C1C3C (stereo unspecified)
inactive: [1] 103 % of control | dose: 100.0 mg/kg/injection, schedule: Q01DX009 (ip), vehicle: saline 100 % of control | [2] 98 % of control | dose: 200.0 mg/kg/injection, schedule: Q01DX009 (ip), vehicle: saline 103 % of control | [3] 101 % of control | dose: 400.0 mg/kg/injection, schedule: Q01DX009 (ip), vehicle: saline 87 % of control

O=c1oc2c(-c3ccccc3)cccc2c(O)c1-c1ccccc1
inactive: dose: 25.0 mg/kg/injection, schedule: Q04DX003 (ip), vehicle: saline with Tween-80 96 % of control | dose: 50.0 mg/kg/injection, schedule: Q04DX003 (ip), vehicle: saline with Tween-80 101 % of control | dose: 100.0 mg/kg/injection, schedule: Q04DX003 (ip), vehicle: saline with Tween-80 93 % of control | [12] 95 % of control | [13] 93 % of control | [14] 93 % of control

ClCCN(CCCl)c1ccc(/C=C\c2ccnc3ccccc23)cc1
inactive: dose: 100.0 mg/kg/injection, schedule: Q01DX009 (ip), vehicle: carboxymethylcellulose (CMC) 88 % of control | dose: 100.0 mg/kg/injection, schedule: Q04DX003 (ip), vehicle: other 96 % of control | dose: 200.0 mg/kg/injection, schedule: Q01DX009 (ip), vehicle: other 90 % of control | dose: 200.0 mg/kg/injection, schedule: Q04DX003 (ip), vehicle: other 96 % of control | dose: 400.0 mg/kg/injection, schedule: Q04DX003 (ip), vehicle: other 98 % of control

O=C(O)C/C(=C/c1ccc2c(c1)OCO2)C(=O)O
inactive: dose: 100.0 mg/kg/injection, schedule: Q01DX009 (sc), vehicle: olive oil, sesame oil, peanut oil 102 % of control | dose: 100.0 mg/kg/injection, schedule: Q04DX003 (sc), vehicle: olive oil, sesame oil, peanut oil 106 % of control | dose: 200.0 mg/kg/injection, schedule: Q01DX009 (sc), vehicle: olive oil, sesame oil, peanut oil 100 % of control | dose: 200.0 mg/kg/injection, schedule: Q04DX003 (sc), vehicle: olive oil, sesame oil, peanut oil 106 % of control | dose: 400.0 mg/kg/injection, schedule: Q01DX009 (sc), vehicle: olive oil, sesame oil, peanut oil 98 % of control | dose: 400.0 mg/kg/injection, schedule: Q04DX003 (sc), vehicle: olive oil, sesame oil, peanut oil 101 % of control

CCCCCCCCSSCCCCCCCC
inactive: [15] 97 % of control | [12] 95 % of control | [16] 95 % of control | [13] 98 % of control | [17] 91 % of control | [14] 95 % of control

CCOC(=O)N/N=C/c1ccc([N+](=O)[O-])cc1
inactive: [1] 94 % of control | [2] 98 % of control | [3] 102 % of control

COC(=O)NC(=S)Nc1ccccc1NC(=S)NC(=O)OC
inactive: dose: 25.0 mg/kg/injection, schedule: Q01DX009 (ip), vehicle: Klucel (hydroxypropylcellulose) (HPC) 94 % of control | dose: 50.0 mg/kg/injection, schedule: Q01DX009 (ip), vehicle: Klucel (hydroxypropylcellulose) (HPC) 102 % of control | [18] 105 % of control | [8] 96 % of control | [9] 99 % of control | [10] 87 % of control

O=C(Cc1ccccc1)c1ccccc1
inactive: [15] 93 % of control | [16] 93 % of control | [17] 100 % of control

C[CH2][Sn]([Cl])([CH2]C)[O][Sn]([Cl])([CH2]C)[CH2]C
inactive: dose: 3.12 mg/kg/injection, schedule: Q04DX003 (ip), vehicle: saline with Tween-80 100 % of control | dose: 6.25 mg/kg/injection, schedule: Q04DX003 (ip), vehicle: saline with Tween-80 100 % of control | dose: 12.5 mg/kg/injection, schedule: Q04DX003 (ip), vehicle: saline with Tween-80 106 % of control

CON(C)CCO
inactive: dose: 25.0 mg/kg/injection, schedule: Q01DX001 (ip), vehicle: Klucel (hydroxypropylcellulose) (HPC) 107 % of control | dose: 50.0 mg/kg/injection, schedule: Q01DX001 (ip), vehicle: Klucel (hydroxypropylcellulose) (HPC) 107 % of control | dose: 100.0 mg/kg/injection, schedule: Q01DX001 (ip), vehicle: Klucel (hydroxypropylcellulose) (HPC) 105 % of control and 107 % of control | dose: 200.0 mg/kg/injection, schedule: Q01DX001 (ip), vehicle: Klucel (hydroxypropylcellulose) (HPC) 102 % of control

OB(O)c1ccccc1
inactive: dose: 100.0 mg/kg/injection, schedule: Q01DX009 (ip), vehicle: gum acacia 105 % of control | dose: 200.0 mg/kg/injection, schedule: Q01DX009 (ip), vehicle: gum acacia 99 % of control

Cc1cc(N(CCCl)CCCl)ccc1C=Nc1ccc2c(c1)nc(C)n2C
inactive: dose: 100.0 mg/kg/injection, schedule: Q04DX002 (ip), vehicle: Klucel (hydroxypropylcellulose) (HPC) 93 % of control | dose: 200.0 mg/kg/injection, schedule: Q04DX002 (ip), vehicle: Klucel (hydroxypropylcellulose) (HPC) 112 % of control | dose: 400.0 mg/kg/injection, schedule: Q04DX002 (ip), vehicle: Klucel (hydroxypropylcellulose) (HPC) 97 % of control

C=C1CC[N+]2(CCCCCC)CCCC12 (stereo unspecified)
inactive: dose: 6.25 mg/kg/injection, schedule: Q01DX009 (ip), vehicle: saline 97 % of control | dose: 12.5 mg/kg/injection, schedule: Q01DX009 (ip), vehicle: saline 91 % of control | dose: 25.0 mg/kg/injection, schedule: Q01DX009 (ip), vehicle: saline 103 % of control

CCN(CC)C(=O)Cn1cc(F)c(NC(C)=O)nc1=O
inactive: [12] 97 % of control | [13] 101 % of control | [14] 101 % of control

Cc1cccc(C2=N/C(=C\c3c(O)ccc4ccccc34)C2=O)c1
inactive: [11] 120 % of control | dose: 200.0 mg/kg/injection, schedule: Q04DX002 (ip), vehicle: saline 95 % of control | dose: 400.0 mg/kg/injection, schedule: Q04DX002 (ip), vehicle: saline 98 % of control

OCCCCCn1cnc2c(=S)nc[nH]c21
inactive: [18] 101 % of control | [8] 93 % of control | dose: 200.0 mg/kg/injection, schedule: Q01DX009 (ip), vehicle: Klucel (hydroxypropylcellulose) (HPC) 101 % of control | [9] 98 % of control | dose: 400.0 mg/kg/injection, schedule: Q01DX009 (ip), vehicle: Klucel (hydroxypropylcellulose) (HPC) 102 % of control | [10] 95 % of control

COC(=O)C(CCSC)NC(=O)C1CSC(C)(C)N1C=O (stereo unspecified)
inactive: [12] 97 % of control | [13] 97 % of control | [14] 101 % of control
